Test results as given in patent US20130196977A1, “USE OF ORGANIC COMPOUNDS” (priority 2004, published 2013).
“Also recorded” adds a separate entry of the source.

Tests used:
Assay type in all cases: in vivo, rat
[1] = tested on: double transgenic rats expressing human renin and human angiotensinogen (dTGR); assay: M-mode echocardiography of LV wall thickness / hypertrophy in dTGR; conditions: dTGR at 9 weeks
Experimental: (§1) As an example, four-week-old, male dTGR are allowed to develop hypertension and are placed in metabolic cages at 5.5 weeks of age. Systolic blood pressure (tail-cuff) and 24 h albumin excretion (ELISA, CellTrend, Germany) are measured as described earlier by Muller et al. Am J Pathol. 2002, 161:1679-93 and Muller et al. Am J Pathol. 2004, 164:521-32. The dTGR are matched at week 6 in terms of 24 h albumin excretion and distributed in five groups of 19 rats each. Treatments begin when the rats are aged 6 weeks. The rats receive vehicle treatment, aliskiren at 0.3 mg/kg/day and 3 mg/kg/day (by subcutaneous minipump), valsartan 1 mg/kg/day, and valsartan 10 mg/kg/day (given in the food). The low dose of valsartan is selected as a threshold treatment to reduce mortality yet only minimally effect blood pressure and organ damage. We know from earlier studies that vehicle-treated animals would not survive beyond 8 weeks of age and thus this low dose valsartan group will serve as a control group at 9 weeks. Echocardiography (M-mode tracings in the short axis and Tissue-Doppler-imaging;, n=5-6 per group at weeks 7 and 9) is performed with a 15 MHz phased-array transducer under isoflurane anesthesia (Mazak et al. Circulation. 2004; 109:2792-800). Three measurements per heart are determined, averaged, and statistically analyzed. M-mode is performed in a LV short axis and measured according to the leading edge-method. Total wall thickness is calculated as sum of septum+left ventricular posterior wall.

[2] = tested on: α-myosin heavy chain (α-MHC) and β-MHC mRNA; assay: RT-PCR of left ventricular α-MHC and β-MHC mRNA in dTGR; conditions: left ventricle, 9 weeks
Experimental: as §1, with “wall. For RT-PCR, LV mRNA is isolated with TRIZOL (Gibco Life Technology). RT-PCR for α-myosin heavy chain (α-MHC) and β-MHC, as well as for atrial natriuretic peptide (ANP) is carried out in 25 μL SybrGreen PCR Master Mix (Applied Biosystems, Germany) containing […] primer and 1 μL of the reverse transcription reaction in a 5700 Sequence Detection System (Applied Biosystems). Thermal cycling conditions comprise an initial denaturation step at 95° C. for 10 min, followed by 95° C. for 15 s and 65° C. for 1 min for 40 cycles. mRNA expression is standardized to the hypoxanthine phosphoribosyl transferase gene as a housekeeping gene (primer sequences available on request).” for “wall.”

[3] = tested on: double transgenic rats expressing human renin and human angiotensinogen (dTGR); assay: Tissue Doppler assessment of diastolic filling (Ea/Aa) in dTGR; conditions: dTGR at 9 weeks
Experimental: as §1
Tissue Doppler measures the velocity of the longitudinal cardiac movement at the basal septum, allowing assessment of diastolic filling Tissue Doppler measurements are performed with the sample volume in the basal septum in a four-chamber view. […] The measurements represent velocities of peak early (Ea) and late (Aa) diastolic expansion velocities. The Ea/Aa ratio is reported as an index of diastolic function.

[4] = tested on: double transgenic rats expressing human renin and human angiotensinogen (dTGR); assay: Cardiac hypertrophy index at sacrifice in dTGR; conditions: for cardiac hypertrophy index score: p<0.05
Experimental: as §1, with “To circumvent this problem, transgenic rats have been developed harboring either the human renin or the human angiotensinogen genes. […] Consequently, the single transgenic rats (i.e., transgenic for either human angiotensinogen or renin) are normotensive. […] As” for “As”, “wall. Rats are sacrificed at age 9 weeks. The kidneys and hearts are removed and washed with ice-cold saline, blotted dry, and weighed. Tissue preparation and immunohistological techniques are performed as previously described Muller et al. Am J Pathol. 2002, 161:1679-93. Sections are incubated with primary antibodies against rat monocytes/macrophages (ED-1, Serotec, Germany), MHC II+, CD4+, and CD86+ cells (all BD Pharmingen, Germany). Scoring of infiltrated cells is performed using the program KS 300 3.0 (Zeiss, Germany). Fifteen different areas of each kidney (n=5 in all groups) are analyzed. A mean score for each animal is computed and used to derive a group mean score. Analyses are conducted without knowledge of the specific treatment.” for “wall.”

[5] = tested on: atrial natriuretic peptide (ANP) mRNA; assay: RT-PCR of left ventricular ANP mRNA in dTGR; conditions: 9 weeks
Experimental: as §1, with “wall. For RT-PCR, LV mRNA is isolated with TRIZOL (Gibco Life Technology). RT-PCR for α-myosin heavy chain (α-MHC) and β-MHC, as well as for atrial natriuretic peptide (ANP) is carried out in 25 μL SybrGreen PCR Master Mix (Applied Biosystems, Germany) containing […] primer and 1 μL of the reverse transcription reaction in a 5700 Sequence Detection System (Applied Biosystems). […]” for “wall.”

[6] = aliskiren 3 mg/kg/d, listed as Alisk
[7] = valsartan 1 mg/kg/d in the food
[8] = valsartan 10 mg/kg/d in the food

With `COCCCOc1cc(C[C@@H](C[C@H](N)[C@@H](O)C[C@H](C(=O)NCC(C)(C)C(N)=O)C(C)C)C(C)C)ccc1OC` [aliskiren, 2(S),4(S),5(S),7(S)—N-(3-amino-2,2-dimethyl-3-oxopropyl)-2,7-di(1-methylethyl)-4-hydroxy-5-amino-8-[4-methoxy-3-(3-methoxy-propoxy)phenyl]-octanamide] the “left ventricular hypertrophy (in words)” value ([1]; aliskiren 0.3 mg/kg/d) was “markedly ameliorated”, the “left ventricular hypertrophy (in words)” value ([1]; aliskiren 0.3 mg/kg/d, listed as Aliskiren) was “reduce left ventricular hypertrophy” and the “wall thickness (septum + LV posterior wall)” value (from here on “wall thickness”) ([1]; aliskiren 3 mg/kg/d subcutaneous minipump) was “about 2.2 mm”. The “left ventricular hypertrophy (in words)” value ([1]; aliskiren 3 mg/kg/d) was “markedly ameliorated; also recorded: lowest wall thickness values”, the “left ventricular hypertrophy (in words)” value [1, 6] was “reduce left ventricular hypertrophy; also recorded: normalized LV dimensions” and the “shift from α-MHC expression to the fetal β-MHC isoform (LV mRNA)” value (“shift from α-MHC expression” for short) ([2]; aliskiren 0.3 mg/kg/d) was “prevent the shift”. For the same compound, the “shift from α-MHC expression” value ([2]; aliskiren 3 mg/kg/d) was “prevent the shift”, the “shift from α-MHC expression” value ([2]; aliskiren 3 mg/kg/d, listed as Aliskiren) was “most effective” and the Ea/Aa ratio ([3]; aliskiren 0.3 mg/kg/d (low dose) subcutaneous minipump) was “about 1.5”. For the same compound, the Ea/Aa ratio ([3]; aliskiren 0.3 mg/kg/d (low dose) subcutaneous minipump, listed as Alisk) was 1.5, the “diastolic dysfunction / diastolic filling (in words)” value ([3]; aliskiren 0.3 mg/kg/d) was “markedly improve” and the “diastolic dysfunction / diastolic filling (in words)” value ([3]; aliskiren 0.3 mg/kg/d, listed as Alisk) was “appropriate diastolic filling”. For the same compound, the Ea/Aa ratio ([3]; aliskiren 3 mg/kg/d (high dose) subcutaneous minipump) was “about 1.4”, the Ea/Aa ratio ([3]; aliskiren 3 mg/kg/d (high dose) subcutaneous minipump, listed as Alisk) was 1.5 and the “diastolic dysfunction / diastolic filling (in words)” value ([3]; aliskiren 3 mg/kg/d) was “markedly improve; also recorded: best diastolic filling”. For the same compound, the “diastolic dysfunction / diastolic filling (in words)” value [3, 6] was “appropriate diastolic filling”, the “cardiac hypertrophy index score” value ([4]; aliskiren 0.3 mg/kg/d subcutaneous minipump from week 6, age 9 weeks) was “decreases” and the “cardiac hypertrophy index score” value ([4]; aliskiren 3 mg/kg/d subcutaneous minipump from week 6, age 9 weeks) was “decreases”. For the same compound, the “cardiac hypertrophy index compared to valsartan 10 mg/kg/d treated dTGR” value ([4]; aliskiren 3 mg/kg/d, age 9 weeks) was “significantly lower”, the “LV ANP mRNA expression compared to valsartan 1 mg/kg/d treated dTGR” value ([5]; aliskiren 0.3 mg/kg/d) was “reduced” and the “LV ANP mRNA expression compared to valsartan 1 mg/kg/d treated dTGR” value ([5]; aliskiren 3 mg/kg/d) was “reduced”.

`CCCCC(=O)N(Cc1ccc(-c2ccccc2-c2nnn[nH]2)cc1)[C@H](C(=O)O)C(C)C` [valsartan] was tested, and the “wall thickness” value [1, 7] was “about 3.4 mm”, the “left ventricular hypertrophy (in words)” value ([1]; valsartan 1 mg/kg/d) was “concentric hypertrophy; also recorded: severe left ventricular hypertrophy; also recorded: severe septal and posterior wall hypertrophy” and the “wall thickness” value [1, 8] was “about 2.7 mm”. For the same compound, the “left ventricular hypertrophy (in words)” value ([1]; valsartan 10 mg/kg/d) was “markedly ameliorated”, the “left ventricular hypertrophy (in words)” value ([1]; valsartan 10 mg/kg/d, listed as Val) was “reduces septal and posterior wall hypertrophy substantially” and the “shift from α-MHC expression” value ([2]; valsartan 10 mg/kg/d) was “prevent the shift”. The Ea/Aa ratio [3, 7] was “about 0.68”, the Ea/Aa ratio ([3]; valsartan 1 mg/kg/d in the food, listed as Val) was 0.66 and the “diastolic dysfunction / diastolic filling (in words)” value ([3]; valsartan 1 mg/kg/d) was “marked diastolic dysfunction”. For the same compound, the “diastolic dysfunction / diastolic filling (in words)” value ([3]; valsartan 1 mg/kg/d, listed as Val) was “severe diastolic dysfunction”, the “diastolic dysfunction / diastolic filling (in words)” value ([3]; valsartan 10 mg/kg/d (high dose)) was “still present” and the “diastolic dysfunction / diastolic filling (in words)” value ([3]; valsartan 10 mg/kg/d (high dose), listed as Val) was “indicating diastolic dysfunction”. For the same compound, the Ea/Aa ratio [3, 8] was “about 1.0”, the Ea/Aa ratio ([3]; valsartan 10 mg/kg/d in the food, listed as Val) was 1.0 and the “cardiac hypertrophy index score” value ([4]; valsartan 10 mg/kg/d in the food from week 6, age 9 weeks) was “decreases”. For the same compound, the “LV ANP mRNA expression compared to valsartan 1 mg/kg/d treated dTGR” value ([5]; valsartan 10 mg/kg/d) was “reduces the expression of this gene, but not to a significant degree”.
